Data set [1] deals with T1, Aurora A (Homo sapiens, UniProt O14965).
T1 construct: purchased Upstate
T1 sequence (O14965 1-403): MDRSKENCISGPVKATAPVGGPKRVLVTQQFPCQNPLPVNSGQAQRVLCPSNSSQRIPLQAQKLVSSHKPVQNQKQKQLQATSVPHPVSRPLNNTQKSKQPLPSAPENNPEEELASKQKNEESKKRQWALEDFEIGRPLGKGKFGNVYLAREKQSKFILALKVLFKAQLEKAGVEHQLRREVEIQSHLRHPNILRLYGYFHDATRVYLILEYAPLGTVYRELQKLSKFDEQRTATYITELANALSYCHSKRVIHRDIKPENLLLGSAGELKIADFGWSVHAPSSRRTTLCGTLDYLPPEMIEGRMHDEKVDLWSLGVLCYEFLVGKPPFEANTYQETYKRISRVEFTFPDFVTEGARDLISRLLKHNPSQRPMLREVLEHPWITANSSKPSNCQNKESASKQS
Description: Aurora A kinase activity assay (Kemptide substrate, Kinase-Glo residual ATP). The settings on record: recombinant Aurora A 10 nM, ATP 1 μM, Kemptide 100 μM, 30° C. 1 hour. In kind it is biochemical. The protocol:
Further, the test compounds and comparative compound were successively diluted with dimethyl sulfoxide (DMSO) from an initial concentration of 12.5 mM to obtain test solutions and DMSO was used as a control solution. Less than 5% of each test solution or control solution was added to a reaction solution containing 20 mM HEPES (pH 7.5), 5 mM MgCl2, 0.5 mM EGTA, 200 mM KCl, 1 mM DTT and 0.05% triton X-100, and 100 μM of Kemptide peptide (PEPTRON), which is a substrate of aurora kinase, 1 μM of ATP and 10 nM of Aurora A (Upstate), which is a recombinant aurora kinase, were added thereto, followed by reacting each mixture at 30° C. for 1 hour. 25 μl of each reacted solution was mixed with 25 μl of Kinase-Glo™ (promega), and reacted at room temperature for 10 minutes, and the amount of residual ATP therein was measured using Fusion a-FP (Packard). Enzymic activity in each reacted solution was analyzed based on the measured value, and IC50 (μM) was determined as a concentration of the test compound required to inhibit the kinase activity by 50% relatively to the control solution, and the results are shown in Table 2.
On the technique in general: Kinase-Glo measures the ATP left after a reaction by luminescence.

The subject of data set [2] is human colon carcinoma cell line, HCT116. As to the kind of experiment: Cancer cell proliferation, SRB assay. It counts as cell-based. As to conditions: HCT116, 48 hours, concentration inhibiting cancer cell proliferation by 50%. The protocol: (§1) In order to examine the suppressive effect of the inventive aminopyrimidine derivatives on the proliferation of cancer cells through inhibiting the protein kinase activity, a test was performed as follows by employing human colon carcinoma cell line, HCT116 (Korean Cell Line Bank, KCLB10247) and human fetal cell line, MRC-5 (Korean Cell Line Bank, KCLB10171).
(§2) HCT116 and MRC-5 cells were plated into the wells of a 96-well plate containing DMEM (Dulbecco's Modified Eagle Medium) medium at a concentration ranging from 1×10^3 to 3×10^3 cells/well, and cultured under conditions of 5% CO2 and 37° C. for 24 hours. Then, the test compounds of Examples 85 to 88, 97 to 99, 105 to 110 and 115 to 118, and a comparative compound, N-(4-(4-(5-methyl-1H-pyrrole-3-yl-amino)-6-(4-methylpiperazin-1-yl)-1,3,5-triazin-2-ylthio) cyclopropane carboxyamide were added thereto in an amount of 0.2, 1, 5, 25 and 100 μM, respectively. The control was not treated with any compound. The cells were cultured for 48 hours.
(§3) After removing the medium from each wells, the cells were washed about 3 times with phosphate-buffered saline (PBS, pH 7.4), followed by fixing with 50% TCA (trichloroacetic acid) refrigerant solution in an amount of 50 μl/well at 4° C. for 1 hour. The fixed cells were washed 5 times with distilled water and dried in the air, and stained with 50 μl/well of 1% acetic acid containing 0.4% SRB (sulforhodamine B) solution at room temperature for 1 hour. The stained cells were washed 5 times with 1% acetic acid and dried in the air, 150 μl/well of 10 mM Tris-HCl (pH 10.5) were added thereto, and the absorbance of each well was measured at 540 nm. The suppressive value of each compound for cell proliferation was calculated based on the absorbance of the control well, and the results are shown in Table 2. In Table 2, EC50 (μM) was determined as a concentration of the test compound required to inhibit cancer cell proliferation by 50% relative to the control, CC50 (μM) was determined as a concentration of the test compound required to inhibit normal cell proliferation by 50% relative to the control, and the therapeutic index was determined as the value of CC50(μM)/EC50(μM).

Data set [3] in a line: Normal cell proliferation, SRB assay. In kind it is cell-based, human. As to conditions: human, CC50(μM). The protocol:
as §1, §2, §3
A general note: Sulforhodamine B stains cellular protein and so reports cell mass.

Data set [4] deals with human fetal cell line, MRC-5. As to the kind of experiment: Normal cell proliferation, SRB assay. It counts as cell-based. As to the method: as §1, §2, §3

Where two headings read alike, the source gives them in different places.

On to `COc1ccc(Nc2nccc(C(=O)NC3CC4CCC3(C)C4(C)C)n2)cc1OCCN1CCCC1` (stereo not drawn) [Compound 107, 2-(4-methoxy-3-(2-(pyrrolidin-1-yl)ethoxy)phenylamino)-N-(1,7,7-trimethylbicyclo[2.2.1]hep-tan-2-yl)pyrimidine-4-carboxyamide], for which, in data set [1], the IC50 – broadly, the point on the concentration scale where inhibition reaches its midpoint – was determined as 18 nM. In addition, the response in data set [2] (Homo sapiens, HCT-116, 48 h) was half-maximal at 1200 nM (EC50). In addition, the CC50 – broadly, the concentration that lowers cell viability or growth by half – at 48 h in data set [3] was 46 µM.

Regarding `CC1(C)C2CCC1(C)C(NC(=O)c1ccnc(Nc3ccc(N4CCN(CCO)CC4)cc3)n1)C2` (stereo not drawn) [Compound 108, 2-(4-(4-(2-hydroxyethyl)piperazin-1-yl)phenylamino)-N-(1,7,7-trimethylbicyclo[2.2.1]hep-tan-2-yl)pyrimidine-4-carboxyamide], the IC50 in data set [1] was 10 nM. In data set [2] (Homo sapiens, HCT-116, 48 h), the EC50 (commonly the concentration needed to bring the measured effect to its halfway point) was 1900 nM. The CC50 at 48 h in data set [3] turned out to be 56 µM.

Turning to `CCN1CCN(c2ccc(Nc3nccc(C(=O)NC4CC5CCC4(C)C5(C)C)n3)cc2)CC1` (stereo not drawn) [Compound 105, 2-(4-(4-ethylpiperazin-1-yl)phenylamino)-N-(1,7,7-trimethylbicyclo[2.2.1]hep-tan-2-yl)pyrimidine-4-carboxyamide], the IC50 in data set [1] came out at 17 nM. Further, the midpoint of the response in data set [2] (Homo sapiens, HCT-116, 48 h), the EC50, lay at 500 nM. Besides, the CC50 at 48 h in data set [3] is > 100 µM.

Turning to `CC1(C)C2CCC1(C)C(NC(=O)c1ccnc(Nc3cccc(NCCCN4CCOCC4)c3)n1)C2` (stereo not drawn) [Compound 98, 2-(3-(3-morpholinopropylamino)phenylamino)-N-(1,7,7-trimethylbicyclo[2.2.1]hep-tan-2-yl)pyrimidine-4-carboxyamide], in data set [1], the IC50 was 39 nM. This compound also gave an EC50 in data set [2] of 3200 nM. In data set [4] (human, 48 h), this compound had a CC50 of 52600 nM.

Consider `CCCN1CCN(c2ccc(Nc3nccc(C(=O)NC4CC5CCC4(C)C5(C)C)n3)cc2)CC1` (stereo not drawn) [Compound 110, 2-(4-(4-propylpiperazin-1-yl)phenylamino)-N-(1,7,7-trimethylbicyclo[2.2.1]hep-tan-2-yl)pyrimidine-4-carboxyamide], for which the IC50 in data set [1] stood at 20 nM. The compound further had an EC50 in data set [2] (Homo sapiens, HCT-116, 48 h) of 1900 nM. For the same compound, the CC50 at 48 h in data set [3] amounted to 32 µM.

On to `CC(C)N1CCN(c2ccc(Nc3nccc(C(=O)NC4CC5CCC4(C)C5(C)C)n3)cc2)CC1` (stereo not drawn) [Compound 109, 2-(4-(4-isopropylpiperazin-1-yl)phenylamino)-N-(1,7,7-trimethylbicyclo[2.2.1]hep-tan-2-yl)pyrimidine-4-carboxyamide], for which, in data set [1], the IC50 came to 20 nM. Besides, a half-maximal response in data set [2] (Homo sapiens, HCT-116, 48 h) (EC50) required 2800 nM. In data set [3], it took 23.5 µM to reach half-maximal cytotoxicity (CC50 at 48 h).

For `CC1(C)C2CCC1(C)C(NC(=O)c1ccnc(Nc3ccc(N4CCN(CC#N)CC4)cc3)n1)C2` (stereo not drawn) [Compound 116, 2-(4-(4-(cianomethyl)piperazin-1-yl)phenylamino)-N-(1,7,7-trimethylbicyclo [2.2.1]heptan-2-yl)pyrimidine-4-carboxyamide], the IC50 in data set [1] worked out at 12 nM. In data set [2] (Homo sapiens, HCT-116, 48 h), this compound displayed an EC50 of 1700 nM. This compound also displayed a CC50 at 48 h in data set [3] of 26.6 µM.

For the compound `CC(C)CN1CCN(c2ccc(Nc3nccc(C(=O)NC4CC5CCC4(C)C5(C)C)n3)cc2)CC1` (stereo not drawn) [Compound 115, 2-(4-(4-isobutylpiperazin-1-yl)phenylamino)-N-(1,7,7-trimethylbicyclo-[2.2.1]heptan-2-yl)pyrimidine-4-carboxyamide], in data set [1], the IC50 turned out to be 93 nM. This compound also yielded an EC50 in data set [2] (Homo sapiens, HCT-116, 48 h) of 3100 nM. The compound also yielded a half-maximal cytotoxic concentration (CC50) at 48 h in data set [3] of 100 µM.

With `CC1(C)C2CCC1(C)C(NC(=O)c1ccnc(Nc3ccc(NCCN4CCCC4)cc3)n1)C2` (stereo not drawn) [Compound 88, 2-(4-(2-(pyrrolidine-1-yl)ethylamino)phenyl-amino)-N-(1,7,7-trimethylbicyclo[2.2.1]heptane-2-yl)pyrimidine-carboxamide], the IC50 in data set [1] stood at 10 nM. Further, in data set [2] (Homo sapiens, HCT-116, 48 h), the half-maximal effective concentration (EC50) came to 800 nM. This compound had a CC50 at 48 h in data set [3] of 24.5 µM.

For the compound `CC1(C)C2CCC1(C)C(NC(=O)c1ccnc(Nc3cccc(NCCCN4CCOCC4)c3)n1)C2` (stereo not drawn) [Compound 97, 2-(3-(3-morpholinopropylamino)phenylamino)-N-(1,7,7-trimethylbicyclo[2.2.1]hep-tan-2-yl)pyrimidine-4-carboxyamide], the IC50 in data set [1] amounted to 50 nM. The compound also gave an EC50 in data set [2] (Homo sapiens, HCT-116, 48 h) of 3100 nM. Further, the CC50 at 48 h in data set [3] is > 100 µM.

As for `CCN(CC)CCOc1cc(Nc2nccc(C(=O)NC3CC4CCC3(C)C4(C)C)n2)ccc1OC` (stereo not drawn) [Compound 106, 2-(3-(2-(diethylamino)ethoxy)-4-methoxyphenylamino)-N-(1,7,7-trimethylbicyclo[2.2.1]hep-tan-2-yl)pyrimidine-4-carboxyamide], the IC50 in data set [1] came out at 11 nM. This compound also came in with an EC50 in data set [2] of 900 nM. Further, in data set [4], the midpoint of cytotoxicity, the CC50, lay at 33000 nM.

Take `COc1ccc(Nc2nccc(C(=O)NC3CC4CCC3(C)C4(C)C)n2)cc1OCCN1CCOCC1` (stereo not drawn) [Compound 99, 2-(4-methoxy-3-(2-morpholinoethoxy)phenyl-amino)-N-(1,7,7-trimethylbicyclo[2.2.1]hep-tan-2-yl)pyrimidine-4-carboxyamide]: the half-maximal inhibitory concentration (IC50) in data set [1] was determined as 23 nM. In data set [2] (Homo sapiens, HCT-116, 48 h), this compound registered an EC50 of 2000 nM. This compound yielded a CC50 at 48 h in data set [3] of 52 µM.

With `CC1(C)C2CCC1(C)C(NC(=O)c1ccnc(Nc3cccc(NCC#N)c3)n1)C2` (stereo not drawn) [Compound 118, 2-(3-(cianomethylamino)phenylami-no)-N-(1,7,7-trimethylbicyclo-[2.2.1]heptane-2-yl)pyrimidine-4-carboxyamide], in data set [1], the IC50 came to 19 nM. The compound further registered an EC50 in data set [2] (Homo sapiens, HCT-116, 48 h) of 2800 nM. The compound also registered a CC50 at 48 h in data set [3] of 62.5 µM.

For the compound “N-(4-(4-(5-methyl-1H-pyrrole-3-yl-amino)-6-(4-methylpiperazin-1-yl)-1,3,5-triazin-2-ylthio) cyclopropane carboxyamide [Comparative compound, reference compound]”, in data set [1], the IC50 was determined as 19 nM. The compound also returned an EC50 in data set [2] of 3000 nM. Also, the CC50 in data set [4] (MRC-5, 48 hours, concentration inhibiting normal cell proliferation by 50%, read-out: CC50) stood at 33000 nM.

Turning to `CC1(C)C2CCC1(C)C(NC(=O)c1ccnc(Nc3ccc(N4CCCCC4)cc3)n1)C2` (stereo not drawn) [Compound 85, 2-(4-(piperidine-1-yl)phenylamino)-N-(1,7,7-trimethylbicyclo[2.2.1]heptane-2-yl)pyrimidine-4-carboxyamide], in data set [1], the IC50 turned out to be 33 nM. In data set [2] (Homo sapiens, HCT-116, 48 h), this compound showed an EC50 of 1600 nM. Besides, in data set [3], the CC50 at 48 h was found to be 38 µM.

On to `CN(C)CCNc1ccc(Nc2nccc(C(=O)NC3CC4CCC3(C)C4(C)C)n2)cc1` (stereo not drawn) [Compound 86], for which, in data set [1], the IC50 turned out to be 88 nM. A half-maximal response in data set [2] (Homo sapiens, HCT-116, 48 h) (EC50) required 1200 nM. In addition, in data set [3], the CC50 at 48 h is > 100 µM.

(Values after patent US20090227612A1, “Aminopyrimidine Derivatives Inhibiting Protein Kinase Activity, Method For The Preparation Thereof And Pharmaceutical Composition Containing Same” (priority 2005, published 2009).)
